Series [1] concerns the target GDP-bound KRAS protein (aa 1-169) G12C/C118A (Homo sapiens (Human), UniProt P01116, C118A/G12C). Briefly: Coupled Nucleotide Exchange Assay (KRAS G12C). The class given is biochemical. As for the experimental part:
(§1) Coupled Nucleotide Exchange Assay: Purified GDP-bound KRAS protein (aa 1-169), containing either G12C or G12D, as well as C118A amino acid substitutions and an N-terminal His-tag, was pre-incubated in assay buffer (25 mM HEPES pH 7.4, 10 mM MgCl2, and 0.01% Triton X-100) with a compound dose-response titration for either 5 min or 20 hours (see Table 15). Following compound pre-incubation, purified SOS protein (aa 564-1049) and GTP (Roche 10106399001) were added to the assay wells and incubated for an additional 30 min. To determine the extent of inhibition of SOS-mediated nucleotide exchange, purified GST-tagged cRAF (aa 1-149), nickel chelate AlphaLISA acceptor beads (PerkinElmer AL108R), and AlphaScreen glutathione donor beads (PerkinElmer 6765302) were added to the assay wells and incubated for 10 minutes. The assay plates were then read on a PerkinElmer EnVision Multilabel Reader, using AlphaScreen® technology, and data were analyzed using a 4-parameter logistic model to calculate IC50 values.

Series [2] concerns the target GDP-bound KRAS protein (aa 1-169) G12D/C118A (Homo sapiens (Human), UniProt P01116, C118A/G12D). The series can be described thus: Coupled Nucleotide Exchange Assay (KRAS G12D). It is filed as biochemical. As to conditions: 20 h compound pre-incubation; read-out: GDP KRAS G12D 20 h Coupled Exchange IC50 IP. As for the experimental part: as §1
For a further series, the target named is GDP-KRAS G12D (Homo sapiens, UniProt P01116, C118A/G12D). The series can be described thus: GDP-KRAS G12D RF-MS Assay. It is filed as binding. As to conditions: 100 μM inhibitor, 20 h incubation, 2 uM KRAS G12D. As to the method: GDP-KRAS G12D RF-MS Assay: MS assays were performed in the following buffer: 25 mM HEPES pH 7.4, 20 mM MgCl2, 10 mM NaCl, 3% DMSO, 0.0005% CHAPS with 100 μM GDP made fresh and added to the assay buffer. The final concentration of KRAS G12D was 2 uM. Assay incubation times were 20 h and the inhibitor concentration was 100 μM. Greiner polypropylene clear V-bottom plates were used for the mass spectrometry assays. Typically, the reaction was initiated by addition of KRAS G12D to a well containing inhibitor followed by Rapidfire MS analysis. Relative % Bound values at the various incubation times were used to estimate a kobs value at 100 uM inhibitor.
RapidFire Sample Liquid handling System: The RapidFire liquid handling unit used was the RF 360 model. Solvents were delivered by Agilent 1260 Infinity pumps. The instrument control software was the Agilent RapidFire High Throughput MS-system software (v4.0.12333.14274). A single C4 Type A (Agilent technologies, G9203) SPE-cartridge was used for these experiments. A volume of 10 μL (sample loop determined) was removed from each well of a 384-well plate by using an aspiration time of 300 ms. The sample load/wash time was 6000 ms at a flow rate of 1.25 mL/min (H2O, 0.1% v/v formic acid, 0.05% v/v trifluoroacetic acid); elution time was 7000 ms (acetonitrile, 0.1% v/v formic acid, 0.05% v/v trifluoroacetic acid); re-equilibration time was 700 ms at a flow rate of 1.25 mL/min (H2O, 0.1% v/v formic acid, 0.05% v/v trifluoroacetic acid).
Mass Spectrometry: Mass spectrometric data was acquired on an Agilent 6530 quadrupole time-of-flight (ToF) MS system, operated with a dual Agilent Jet Spray (AJS) ion source, in positive ionization mode. The instrument parameters were as follows: gas temperature 350° C.; drying gas 5 L/min; nebulizer 60 psi; sheath gas 350° C.; sheath gas flow 11 L/min; capillary 3.5 kV (0.037 μA); nozzle 1.75 kV; fragmentor 200 V; skimmer 75 V; octapole RF 800 V peak-to-peak. Data was acquired at the rate of 5 spectra/s. The mass scale was calibrated using the Agilent positive ion tune mix, over the m/z range 300-3200. The instrument control software was Agilent MassHunter Workstation Data Acquisition (vB.05.01).
Mass Spectrometry Data Processing and Informatics: All data processing was performed using a HP Z620, 64-bit, 12-processor, Windows 7 PC, using a combination of Agilent MassHunter Qualitative Analysis (B.05.00) Agilent RapidFire control software (v4.0.12333.14070) and the Agilent DA Reprocessor Offline Utilities B.05.00, Build 162. The SPE-MS data acquired from the RapidFire-MS system is typically a single SPE-MS data file composed of multiple injection events. For effective charge state extraction, SPE-peak integration and subsequent MS-spectral deconvolution, the single SPE-MS data file is split into single injection events. This is typically performed off-line and achieved through the RapidFire User Interface software, using the Agilent RapidFire control software (v4.0.12333.14070) using the Convert MS Data option. Once the individual injection-event MS-data files have been produced, they are all batch processed using the DA Reprocessor Offline Utilities (B.05.00, Build 162, Agilent). For batch processing a method file was created using Agilent MassHunter Qualitative Analysis B.05.00. The details of this method file are contained within the BioConfirm Workflow and are as follows: Integrate (MS), Integrator Selection: General, smooth option selected; detector point sampling 1; start threshold 5.0; stop threshold 0.0; filtering 5 point; peak location, top. Extract (MS): Peak Spectrum Extraction (MS) within m/z 800-1400. Deconvolute (MS) Maximum Entropy: mass range 19,000-21,000 Daltons; Mass step 1.0 Da; S/N threshold 20.0; Use limited m/z range 800-1400; adduct proton; isotope peak width automatic; minimum consecutive charge states 5. […]

[3] abbreviates: 5 min compound pre-incubation, read-out: GDP KRAS G12C 5 min Coupled Exchange IC50 IP.
The mark [4] stands for this setting: 20 h compound pre-incubation, read-out: GDP KRAS G12C 20 h Coupled Exchange IC50 IP.

Where two headings read alike, the source gives them in different places.

GDP-bound KRAS protein (aa 1-169) G12D/C118A, sequence (P01116 other isoform, or with tags, fused parts or gaps G12D/C118A): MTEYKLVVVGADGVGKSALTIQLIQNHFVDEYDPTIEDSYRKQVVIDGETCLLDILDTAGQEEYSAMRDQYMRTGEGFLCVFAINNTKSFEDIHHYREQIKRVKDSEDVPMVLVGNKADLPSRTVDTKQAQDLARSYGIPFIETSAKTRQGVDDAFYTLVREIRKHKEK
GDP-bound KRAS protein (aa 1-169) G12C/C118A, sequence (P01116 other isoform, or with tags, fused parts or gaps G12C/C118A): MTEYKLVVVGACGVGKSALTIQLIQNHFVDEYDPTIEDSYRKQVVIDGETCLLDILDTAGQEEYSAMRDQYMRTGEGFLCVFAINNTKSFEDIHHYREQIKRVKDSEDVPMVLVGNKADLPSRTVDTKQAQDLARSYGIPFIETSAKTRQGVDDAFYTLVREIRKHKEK

With `Cc1ccnc(C(C)C)c1-n1c(=O)nc(N2CCN(C(=O)[C@H]3CO3)C[C@@H]2C)c2cc(Cl)c(-c3ccccc3F)nc21` (atropisomer, axis not shown) [Example 16, 6-Chloro-7-(2-fluorophenyl)-1-(2-isopropyl-4-methylpyridin-3-yl)-4-((S)-2-methyl-4-((R)-oxirane-2-carbonyl)piperazin-1-yl)pyrido[2,3-d]pyrimidin-2(1H)-one], the concentration for half-maximal inhibition (IC50) in series [1] (setting [3]) is 3.78 µM; in series [1] (setting [4]) it was 0.027 µM; in series [2], 190 µM. Further, on GDP-KRAS G12D, the “GDP-KRAS G12D RF-MS 100 μM 20 h Relative % Bound” value turned out to be 3.4%.
In the case of `Cc1ccnc(C(C)C)c1-n1c(=O)nc(N2CC[C@@H](NC(=O)C3CO3)C2)c2cc(Cl)c(-c3ccccc3F)nc21` (stereo partly drawn) [Example 26, N—((R)-1-(6-Chloro-7-(2-fluorophenyl)-1-(2-isopropyl-4-methylpyridin-3-yl)-2-oxo-1,2-dihydropyrido[2,3-d]pyrimidin-4-yl)pyrrolidin-3-yl)oxirane-2-carboxamide], the results for the IC50 in series [1] (setting [3]), in series [1] (setting [4]) and in series [2] were 194 µM, 2.99 µM and over 250 µM, respectively.
Take `Cc1ccnc(C(C)C)c1-n1c(=O)nc(N2CC(NC(=O)C3CO3)C2)c2cc(Cl)c(-c3ccccc3F)nc21` (centres unmarked) [Example 27]: the IC50 in series [1] (setting [3]) was 4.41 µM; in series [1] (setting [4]), 0.018 µM; in series [2], over 250 µM.
`Cc1ccnc(C(C)C)c1-n1c(=O)nc(N2CCC3C2CN3C(=O)C2CO2)c2cc(Cl)c(-c3ccccc3F)nc21` (centres unmarked) [Example 28, 6-Chloro-7-(2-fluorophenyl)-1-(2-isopropyl-4-methylpyridin-3-yl)-4-(6-(oxirane-2-carbonyl)-2,6-diazabicyclo[3.2.0]heptan-2-yl)pyrido[2,3-d]pyrimidin-2(1H)-one]: the concentration for half-maximal inhibition (IC50) is 193 µM in series [1] (setting [3]), 0.647 µM in series [1] (setting [4]) and over 250 µM in series [2].
On the same counts, the results for `Cc1ccnc(C(C)C)c1-n1c(=O)nc(N(C)C2CN(C(=O)C3CO3)C2)c2cc(Cl)c(-c3ccccc3F)nc21` (centres unmarked) [Example 29] are 13.8 µM, 0.227 µM and over 250 µM.
On to `Cc1ccnc(C(C)C)c1-n1c(=O)nc(N(C)C2CN(C(=O)[C@H]3CO3)C2)c2cc(Cl)c(-c3ccccc3F)nc21` [Example 30, (R)-6-chloro-7-(2-fluorophenyl)-1-(2-isopropyl-4-methylpyridin-3-yl)-4-(methyl(1-(oxirane-2-carbonyl)azetidin-3-yl)amino)pyrido[2,3-d]pyrimidin-2(1H)-one], for which the figures for the half-maximal inhibitory concentration (IC50) in series [1] (setting [3]), in series [1] (setting [4]) and in series [2] were over 250 µM, over 31.3 µM and over 250 µM, respectively. In addition, on GDP-KRAS G12D, the “GDP-KRAS G12D RF-MS 100 μM 20 h Relative % Bound” value was 1.4%.
As to `Cc1ccnc(C(C)C)c1-n1c(=O)nc(NC2CN(C(=O)C3CO3)C2)c2cc(Cl)c(-c3ccccc3F)nc21` (centres unmarked) [Example 31, 6-Chloro-7-(2-fluorophenyl)-1-(2-isopropyl-4-methylpyridin-3-yl)-4-((1-(oxirane-2-carbonyl)azetidin-3-yl)amino)pyrido[2,3-d]pyrimidin-2(1H)-one], the concentration for half-maximal inhibition (IC50) was 146 µM in series [1] (setting [3]), 1.57 µM in series [1] (setting [4]) and over 250 µM in series [2]. The “GDP-KRAS G12D RF-MS 100 μM 20 h Relative % Bound” value at GDP-KRAS G12D amounted to 2.2%.
In the case of `Cc1ccnc(C(C)C)c1-n1c(=O)nc(N[C@@H]2CCN(C(=O)C3CO3)C2)c2cc(Cl)c(-c3ccccc3F)nc21` (stereo partly drawn) [Example 32, 6-Chloro-7-(2-fluorophenyl)-1-(2-isopropyl-4-methylpyridin-3-yl)-4-(((3R)-1-(oxirane-2-carbonyl)pyrrolidin-3-yl)amino)pyrido[2,3-d]pyrimidin-2(1H)-one], the IC50 in series [1] (setting [3]) is 101 µM; in series [1] (setting [4]), 1.85 µM; in series [2], over 250 µM. The “GDP-KRAS G12D RF-MS 100 μM 20 h Relative % Bound” value at GDP-KRAS G12D turned out to be 3.1%.
As for `Cc1ccnc(C(C)C)c1-n1c(=O)nc(N2CCCC3C2CN3C(=O)C2CO2)c2cc(Cl)c(-c3ccccc3F)nc21` (centres unmarked) [Example 33, 6-Chloro-7-(2-fluorophenyl)-1-(2-isopropyl-4-methylpyridin-3-yl)-4-(7-(oxirane-2-carbonyl)-2,7-diazabicyclo[4.2.0]octan-2-yl)pyrido[2,3-d]pyrimidin-2(1H)-one], the IC50 in series [1] (setting [3]) was 60.9 µM; in series [1] (setting [4]), 0.261 µM; in series [2], over 250 µM. For the same molecule, the “GDP-KRAS G12D RF-MS 100 μM 20 h Relative % Bound” value on GDP-KRAS G12D came to 2%.
The like results for `Cc1ccnc(C(C)C)c1-n1c(=O)nc(N2CCC[C@H](NC(=O)C3CO3)C2)c2cc(Cl)c(-c3ccccc3F)nc21` (stereo partly drawn) [Example 34, N—((S)-1-(6-Chloro-7-(2-fluorophenyl)-1-(2-isopropyl-4-methylpyridin-3-yl)-2-oxo-1,2-dihydropyrido[2,3-d]pyrimidin-4-yl)piperidin-3-yl)oxirane-2-carboxamide] were, in that order, over 250 µM, over 250 µM, over 250 µM and 2.9%.
The like results for `Cc1ccnc(C(C)C)c1-n1c(=O)nc(N2CC[C@H](NC(=O)C3CO3)C2)c2cc(Cl)c(-c3ccccc3F)nc21` (stereo partly drawn) [Example 35, N—((S)-1-(6-chloro-7-(2-fluorophenyl)-1-(2-isopropyl-4-methylpyridin-3-yl)-2-oxo-1,2-dihydropyrido[2,3-d]pyrimidin-4-yl)pyrrolidin-3-yl)oxirane-2-carboxamide] were, in that order, 167 µM, 1.36 µM, over 250 µM and 3.4%.
On the same counts, the results for `Cc1ccnc(C(C)C)c1-n1c(=O)nc(N2C[C@@H](C)N(C(=O)[C@H]3CO3)C[C@@H]2C)c2cc(Cl)c(-c3c(O)cccc3F)nc21` [Example 36, 6-Chloro-4-((2S,5R)-2,5-dimethyl-4-((R)-oxirane-2-carbonyl)piperazin-1-yl)-7-(2-fluoro-6-hydroxyphenyl)-1-(2-isopropyl-4-methylpyridin-3-yl)pyrido[2,3-d]pyrimidin-2(1H)-one] are 0.653 µM, 0.024 µM, over 250 µM and 8.1%.

The term IC50 denotes the concentration that gives 50% inhibition.

The values are drawn from US20240190862A1 (AMGEN INC., priority 2019, published 2024).
